Assay: gradient 5% acetonitrile 3 min, to 50% in 2 min, to 85% in 15 min, held 3 min, 100 µL/min
Settings: column: Zorbax Extend-C18 2.1 x 50 mm; eluents: water / acetonitrile, 0.1% formic acid
In short: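 A Zorbax Extend-C18 column (2.1 × 50 mm, 1.8 μm) run at 100 μL/min with water and acetonitrile, both containing 0.1% formic acid, separated mixtures of ~100 pure standards. The HPLC was coupled to a quadrupole time-of-flight mass spectrometer operated in positive and negative ionization mode, with dead and dwell volumes of 40 μL and 900 μL. Each retention time was taken from a computationally picked adduct peak that was then manually inspected.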

Structure (SMILES)	RP-LC retention time [s]
CCC(C)n1[nH]c(=O)c2c1NC(=O)CSC2c1ccc(OC)c(OC)c1 (stereo not drawn)	654
CCOc1ccccc1NC(=O)Cn1nc2c(Oc3ccccc3C)nccn2c1=O	935
O=C(NCC1COc2ccccc2O1)C(=O)N1CCCCC1 (stereo not drawn)	757
O=C(CN1CCCc2nc(C3CC3)ncc2C1=O)NCc1cccs1	682
O=C(NCc1ccc(F)cc1)C1CCc2nc(N3CCCCC3)ncc2C1 (stereo not drawn)	678
CC(C)CNC(=O)c1nnc(-c2ccc(S(=O)(=O)N(C)C)cc2)o1	787
Cc1ccc(F)c2c(=O)c3c([nH]c12)CCN(CC(=O)Nc1ccc(F)c(F)c1)C3	635
Cc1cc(N2CCCC2)n2nc(CN3CCN(c4ccccc4Cl)CC3)nc2n1	662
O=C(NCc1nc2ccccc2n1CC(=O)N1CCCC1)c1ccco1	587
COc1ccc(-c2nc3cc(C)ccn3c2Nc2ccc(C)cc2)cc1	761
Cc1ccc2nc(NC(=O)Cc3csc4nc(-c5ccc(C)c(C)c5)cn34)sc2c1	953
Cc1cc(=O)n(CC(=O)Nc2ccccc2F)c(N2CCc3ccccc3C2)n1	802
CCc1ccc(OCc2nc(C)c(C(=O)Nc3nc(-c4ccc(F)cc4)cs3)s2)cc1	1320
Cc1nc(N2CCN(c3ccccn3)CC2)nc2c1C(=O)CC(/C=C/c1ccccc1)C2 (stereo not drawn)	856
COc1ccc(C(CC(=O)NCCN2CCCC2)N2Cc3ccccc3C2=O)cc1OC (stereo not drawn)	609
Cc1cccc(N2C(=O)CN(Cc3ccccc3)[C@H]3CS(=O)(=O)C[C@H]32)c1	859
Cc1ccc(NC(=O)N2CCC(c3nc(C(=O)N4CCCC4)c(C)o3)CC2)cc1Cl	895
COc1ccccc1NC(=O)Cn1nc(N2CCOCC2)c2ccccc2c1=O	819
CCOC(=O)c1cnc2nc(C)ccc2c1Nc1cc(OC)cc(OC)c1	720
O=C(NCc1ccccc1)C1CC(=O)N(c2ccc3c(c2)CCN3C(=O)C2CCC2)C1 (stereo not drawn)	769
CC(C)C(=O)Nc1nc(-c2ccc3c(c2)N(C)C(=O)C(C)O3)cs1 (stereo not drawn)	822
CCc1nc2c(NC(=O)c3ccc(C)c(F)c3)cccn2n1	850

Structure (SMILES)	RP-LC retention time [s]
CCOc1ccccc1NC(=O)C1CCN(c2cncnc2N2CCCCC2)CC1	742
CC(C)c1ccc(NC(=O)Cn2nc3c4ccc(Cl)cc4ncn3c2=O)cc1	671
CC1(C)C(=O)N(CC(=O)Nc2c3c(nc4ccccc24)CCCC3)c2ccccc21	664
CCOC(=O)c1nc(Nc2ccc(S(=O)(=O)Nc3ncccn3)cc2)c2ccccc2n1	688
Cc1cccc(NC(=O)Cn2nc(N3CCCC(C)C3)c3ccccc3c2=O)c1C (stereo not drawn)	1120
CC(=O)Oc1ccc2ccc(=O)oc2c1OC(C)=O	856
CCC1CN(CC(=O)NCCN(CC)CC)c2ccccc2S1 (stereo not drawn)	680
O=C(c1cccc(N2CCNC(c3ccccc3)C2)n1)N1CCSCC1 (stereo not drawn)	614
Cc1cnn(Cc2c(C(=O)N3C[C@@H](C(N)=O)[C@H](c4nc(C)no4)C3)noc2C)c1	590
O=C(CN1C(=O)C2CCCCN2c2ccc(C(=O)N3CCCCC3)cc21)N1CCc2ccccc2C1 (stereo not drawn)	921
CCn1cc(C(=O)N2CCc3ccccc32)c2nn(-c3ccccc3)c(=O)c-2c1	803
CN1CCN(CC2CCC3(CCN(S(=O)(=O)c4ccc(C(C)(C)C)cc4)CC3)O2)CC1 (stereo not drawn)	665
O=C(c1nnc(-c2ccc(S(=O)(=O)N3CCOCC3)cc2)o1)N1CCN(C2CCCCC2)CC1	647
COc1ccc(OC)c(CNC(=O)Cc2nnc(-c3cccc(Br)c3)o2)c1	796
Cc1nc(C)c(C(=O)NCCn2c(C)cnc2C2CCC2)s1	570
CCOC(=O)c1c(C)[nH]c2cc(Br)c(O)cc12	768
O=c1ccc(S(=O)(=O)N2CCCC2)cn1Cc1ccc(F)cc1	820
Cc1ccc(C2=NC3(CCN(C(=O)c4ccc(F)cc4F)CC3)ON2)cc1	855
O=C(NCc1ccccc1F)c1ccc(NC(=O)C2CC2)cc1N1CCOCC1	995
COc1ccc(OC)c(CN2C(=O)c3ccccc3C2C(=O)NCC2CCCO2)c1 (stereo not drawn)	641
COc1ccc(OCc2noc(CNC(=O)CSc3nc4ccccc4s3)n2)cc1	855
CC(C)CNC(=O)CN1c2ccc(F)cc2-c2ccccc2S1(=O)=O	920

Structure (SMILES)	RP-LC retention time [s]
CC(C)CNC(=O)NCCC1CCN(S(=O)(=O)c2ccc(F)cc2)CC1	824
Cc1sc(-c2cc(C(F)(F)F)on2)cc1S(=O)(=O)N1CCOCC1	1040
CCOc1ccc(C(=O)Nc2ccc(-c3cn4ccc(C)nc4n3)cc2)cc1OCC	684
O=C(Cn1c(-c2ccccc2F)nc2ccccc21)N1CCOCC1	600
CC1(c2ccccc2)O[C@@H]2C[C@H]3[C@@H]4CCC5=CC(=O)C=C[C@]5(C)[C@@]4(F)[C@@H](O)C[C@]3(C)[C@]2(C(=O)CO)O1 (stereo partly drawn)	870
Cc1cc(C)cc(NC(=O)Cn2nc(N3CCCC3)c3ccccc3c2=O)c1	1010
O=C1CN(Cc2ccc3c(c2)OCO3)C2CS(=O)(=O)CC2N1c1cccc(Cl)c1 (stereo not drawn)	770
CCOCC(=O)N1CCCn2cc(-c3ccccc3)nc21	621
Cc1ccc(-c2nc(-c3ccc4c(c3)ncn4CCN3CCCC3)no2)s1	639
CNC(=O)c1cc2c(s1)N(CC1CC1)CCCC2	889
Cn1cc(CCN2CCC(C(=O)NCc3ccc(Cl)cc3)CC2)c2cccnc21	617
c1ccc(C(O[C@@H]2CCCN(CCc3ccc4c(c3)OCO4)C2)c2ccccc2)cc1	961
Cc1cccc(CN2N=C(C(=O)N3CCOCC3)S(=O)(=O)c3ccccc32)c1	832
Cc1ccc(CNC(=O)C2CCN(c3cn[nH]c(=O)c3)C2)o1 (stereo not drawn)	626
CCN1CCn2cc(S(=O)(=O)Nc3cc(C)cc(C)c3)cc2C1=O	729
O=C(Cn1cccc1-c1nc(-c2ccc3c(c2)OCO3)no1)Nc1cccc(Cl)c1	1060
COc1ccc(-c2cc(N3CCN(C(=O)c4ccc(Br)o4)CC3)ncn2)cc1	591
O=C(C1CCCCN1S(=O)(=O)c1ccc(F)cc1)N1CCc2ccccc21 (stereo not drawn)	1090
Cn1cc(CN2CCC(C(=O)NC3CCCC3)CC2)c2cc(Cl)ccc21	692
COc1cc2c(cc1OC)C1C(C(=O)Nc3ccc4c(c3)OCCO4)c3ccccc3C(=O)N1CC2 (stereo not drawn)	772
Oc1cc2c(cc1O)[C@H]1c3ccccc3CN[C@@H]1CC2	628
O=C(Cc1cccc(F)c1)N1CCc2cc(-c3ccno3)ccc21	948

Structure (SMILES)	RP-LC retention time [s]
Cc1sc(C)c(S(=O)(=O)NCc2ccc3c(c2)OCO3)c1-c1cc(C(F)(F)F)on1	1120
O=C(NCCn1nnc2cc(C(=O)N3CCCC3)ccc21)Nc1ccc(F)c(Cl)c1	704
COc1ccccc1OCC1c2ccsc2CCN1C(=O)CN(CC1CC1)C(C)=O (stereo not drawn)	828
CCc1onc(C)c1C1CCCN1C(=O)Nc1ccc(OC)c(OC)c1 (stereo not drawn)	796
CC(C)c1nnc(-c2ccc(S(=O)(=O)N3CCCCC3)o2)o1	890
O=C(NCc1cccc(F)c1)c1ccc(-c2cccs2)nc1	894
O=C(CC1CCCCC1)N1CCC(c2ccncc2)CC1	622
CCc1ccc(CNC(=O)c2ccc3[nH]c4c(c3c2)CN(C(C)=O)CC4)cc1	680
CCOC(=O)c1[nH]c2ccc(F)cc2c1NC(=O)CN(CC)CC	605
CCc1ccccc1NC(=O)COc1cc(C)nc(N2CCN(c3ccccc3)CC2)n1	935
CCc1cc(=O)n(CC(=O)Nc2cc(F)ccc2F)c(N2CCOCC2)n1	770
CSc1ccccc1C(=O)N1CC2CC1C(=O)O2 (stereo not drawn)	628
Cc1cc(C)c(S(=O)(=O)N2CCCC2c2nc(-c3cccc(F)c3)no2)cc1C (stereo not drawn)	1270
Cc1nc(N2CCOCC2)cc(N2CCN(C(=O)c3ccc(Br)o3)CC2)n1	619
CCOc1ccccc1-c1noc(-c2nnn3c2COC(c2ccc(OC)cc2)C3)n1 (stereo not drawn)	1080
CCCn1cc(S(=O)(=O)NCc2ccccc2C)c2cccnc21	946
CN(C)C(=O)c1csc(S(=O)(=O)N2CCC(C(=O)NCc3ccccc3Cl)CC2)c1	784
CCC(=O)CCCCC[C@@H]1NC(=O)[C@H]2CCCCN2C(=O)[C@H]([C@H](C)CC)NC(=O)[C@H](Cc2cn(OC)c3ccccc23)NC1=O	965
O=C(Nc1nc2ccccc2s1)C1CCN(C(=O)c2cccc(F)c2)CC1	821
CC(CC(=O)Nc1ccccc1Cl)S(=O)(=O)c1ccc2c(c1)NC(=O)CCS2 (stereo not drawn)	761
CCCn1cc(CCNC(=O)c2ccc(C)cc2C)c2cccnc21	799
Cc1cccc(C)c1NC(=O)Cn1cnc2nc3c(cc2c1=O)CC(C)CC3 (stereo not drawn)	758

From the METLIN SMRT retention time set (Domingo-Almenara et al. 2019)
